In US20230287416A1, “COMBINATORY TREATMENT OF SMA WITH SARNA AND MRNA MODULATORS” (RACTIGEN THERAPEUTICS, priority 2020, published 2023):

Test system: SMN2 mRNA
Assay: RT-qPCR of SMN2FL and SMN2 Δ7 mRNA in brain, liver and spinal cord of SMA type III mice
Type: in vivo, mouse
Method: The combinatory effect of LNP-R6-04M1 with LNP-ASO-10-27 or with Risdiplam were in evaluated in vivo, in SMA type IU mice. Neonatal mice were divided into 10 treatment groups: • Treatment Group 1: administration of LNP-R6-04M1 via ICV injection (injected twice on P1 and P3 respectively, each with 10 ug of LNP-R6-04M1); • Treatment Group 2: administration of LNP-ASO-10-27 via ICV injection (injected twice on P1 and P3 respectively, each with 10 ug of LNP-ASO-10-27); • Treatment Group 3: administration of Risdiplam via IP injection on P1 at a concentration of 0.3 mg/kg; • Treatment Group 4: administration of Risdiplam via IP injection on P1 at a concentration of 1 mg/kg; • Treatment Group 5: administration of Risdiplam via IP injection on P1 at a concentration of 3 mg/kg; • Treatment Group 6: combinatory treatment via administration of LNP-R6-04M1 and LNP-ASO-10-27. LNP-R6-04M1 was administered via ICV injection on P1 (10 ug), while LNP-ASO-10-27 was administered via ICV injection on P3 (10 ug); • Treatment Group 7: combinatory treatment via administration of LNP-ASO-10-27 and LNP-R6-04M1. LNP-ASO-10-27 was administered via ICV injection on P1 (10 ug), while LNP-R6-04M1 was administered via ICV injection on P3 (10 ug); • Treatment Group 8: combinatory treatment of LNP-R6-04M1 and Risdiplam. LNP-R6-04M1 was injected on P1 (10 ug) via ICV injection, and Risdiplam was injected via IP injection on P3 at a concentration of 0.3 mg/kg; • Treatment Group 9: combinatory treatment of LNP-R6-04M1 and Risdiplam. LNP-R6-04M1 was injected on P1 (10 ug) via ICV injection, and Risdiplam was injected via IP injection on P3 at a concentration of 1 mg/kg;
The SMA type LII mice were treated saline twice on P1 (5 μL) and P3(5 μL) via subcutaneous (SC) injection. P1 and P3 means postnatal day 1 and day3;
Treatment Group 10: treatment of mice with saline SMN2FL and SMN2 Δ7 mRNA levels were quantified by RT-qPCR in tissues of the brain, liver and spinal cord.
For RNA isolation from cultured cells, total cellular RNA was isolated from treated cells using an RNeasy Plus Mini kit (Qiagen, Hilden, Germany) according to its manual. To isolated RNA from animal tissues, tissues were harvested and stored at RNA later (AM7021, Thermo Fisher). Total RNA was then isolated using MagPure Total RNA Micro LQ kit (Magen, R6621, China) by auto-pure96 machine (ALLSHENG, China). The resultant RNA (1 μg) was reverse transcribed into cDNA by using a PrimeScript RT kit containing gDNA Eraser (Takara, Shlga, Japan). The resultant cDNA was amplified in an ABI 7500 Fast Real-time PCR System (Applied Biosystems; Foster City, Calif.) using SYBR Premix Ex Taq 11 (Takara, Shlga, Japan) reagents and primers which specifically amplified full-length (SMN2FL) or A7 SMN2 mRNA (SMN2 Δ7) (FIG. 1). The reaction conditions were: 95° C. for 3 seconds (1 cycle) and 60° C. for 30 seconds (40 cycles). Amplification of TBP gene served as an internal control.
All animal procedures were conducted by certified laboratory personnel using protocols consistent with local and state regulations and approved by the Institutional Animal Care and Use Committee. SMA-like mice created by homozygous knock-out of mouse Smn exon 7 with transgene of human SMN2 (Smn−/−SMN2+/−) as previously described Hsieh-Li et al. (Hsieh-Li, H. M., et al. A mouse model for spinal muscular atrophy. Nature Genet (2000) were obtained from Jackson Laboratories. Tail snips were gathered at postnatal day 0 (P0), and each pup was identified by paw tattooing and genotyped by PCR analysis using a set of 3 specific primers: S1, 5′-[…]-3′, and S2, 5′-[…]-3′ (1,150 bp band for wild type alleles) and S1 and H1, 5′-[…]-3′ (950 bp band for mutant alleles). The PCR products were detected by 1% agarose gel. Severe SMA mice (Smn^−/−, SMN^+/0) were generated. Littermates heterozygous for mouse Smn (Smn1^+/−, SMN2^+/−) were used as controls. […]

[1] = brain, IP on P1, 0.3 mg/kg (Treatment Group 3)
[2] = brain, IP on P1, 1 mg/kg (Treatment Group 4)
[3] = brain, IP on P1, 3 mg/kg (Treatment Group 5)
[4] = liver, IP on P1, 0.3 mg/kg (Treatment Group 3)
[5] = liver, IP on P1, 1 mg/kg (Treatment Group 4)
[6] = liver, IP on P1, 3 mg/kg (Treatment Group 5)

## Cc1cn2nc(-c3cc(=O)n4cc(N5CCNC6(CC6)C5)ccc4n3)cc(C)c2n1 [Risdiplam]
[1]
  SMN2FL mRNA expression, fold relative to control: 1.1 fold
  SMN2 Δ7 mRNA expression, fold relative to control: 1.0 fold
[2]
  SMN2FL mRNA expression, fold relative to control: 1.3 fold
  SMN2 Δ7 mRNA expression, fold relative to control: 1.0 fold
[3]
  SMN2FL mRNA expression, fold relative to control: 1.0 fold
  SMN2 Δ7 mRNA expression, fold relative to control: 1.0 fold
[4]
  SMN2FL mRNA expression, fold relative to control: 1.1 fold
  SMN2 Δ7 mRNA expression, fold relative to control: 1.0 fold
[5]
  SMN2FL mRNA expression, fold relative to control: 1.5 fold
  SMN2 Δ7 mRNA expression, fold relative to control: 0.9 fold
[6]
  SMN2FL mRNA expression, fold relative to control: 1.0 fold
  SMN2 Δ7 mRNA expression, fold relative to control: 1.0 fold
